The values below come from PMC7714403 (JCI Insight, 2020).

What is called inhibition is the drop in the measured response relative to a control, in per cent. Usually Kd stands for the constant that tells how readily two partners part at equilibrium. Low values mean a tighter complex, high ones a looser complex. What is called Inhibition is the change of the read-out against control, counted positive when it falls. A high value points to strong suppression.

One test concerns the target NEK2 (Homo sapiens, UniProt P51955). Briefly: KiNativ, OCI cells live cell. Format: cell-based. Conditions: 2 h, labeling site Lys2, peptide […].
In the next test the target is T1, JAK2 (Homo sapiens, UniProt O60674).
T1 construct: purchased Eurofins DiscoverX
T1 sequence (O60674 whole entry): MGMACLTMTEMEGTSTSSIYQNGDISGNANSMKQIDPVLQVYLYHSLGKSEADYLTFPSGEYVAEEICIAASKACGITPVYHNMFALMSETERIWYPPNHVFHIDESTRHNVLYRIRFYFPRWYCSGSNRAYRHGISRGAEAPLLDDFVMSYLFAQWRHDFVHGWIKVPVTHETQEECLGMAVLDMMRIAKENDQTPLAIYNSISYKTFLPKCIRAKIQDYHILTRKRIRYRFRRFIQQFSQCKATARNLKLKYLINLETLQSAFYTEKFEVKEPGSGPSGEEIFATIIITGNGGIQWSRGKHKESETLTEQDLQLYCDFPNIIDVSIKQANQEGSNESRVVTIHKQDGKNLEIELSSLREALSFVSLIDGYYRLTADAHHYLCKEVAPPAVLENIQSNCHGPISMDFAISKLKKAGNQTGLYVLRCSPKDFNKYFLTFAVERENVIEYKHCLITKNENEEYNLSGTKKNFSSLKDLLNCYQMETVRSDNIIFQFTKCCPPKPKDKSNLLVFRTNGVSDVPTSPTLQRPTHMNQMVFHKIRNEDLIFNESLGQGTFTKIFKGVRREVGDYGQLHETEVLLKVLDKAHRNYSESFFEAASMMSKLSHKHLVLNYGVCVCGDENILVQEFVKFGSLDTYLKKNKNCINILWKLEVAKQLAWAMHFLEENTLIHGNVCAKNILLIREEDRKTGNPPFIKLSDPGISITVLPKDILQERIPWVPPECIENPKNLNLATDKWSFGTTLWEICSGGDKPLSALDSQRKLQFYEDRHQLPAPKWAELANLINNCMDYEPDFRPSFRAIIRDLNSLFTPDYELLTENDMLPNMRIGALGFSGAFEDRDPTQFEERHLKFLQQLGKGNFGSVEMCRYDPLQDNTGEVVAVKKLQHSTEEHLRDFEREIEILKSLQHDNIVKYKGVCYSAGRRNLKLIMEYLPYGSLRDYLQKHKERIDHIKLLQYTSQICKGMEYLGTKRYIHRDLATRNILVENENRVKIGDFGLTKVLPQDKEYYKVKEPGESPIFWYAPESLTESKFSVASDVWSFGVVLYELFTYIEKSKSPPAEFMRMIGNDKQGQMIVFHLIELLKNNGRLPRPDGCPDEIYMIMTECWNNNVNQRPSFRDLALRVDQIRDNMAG
Briefly: KdELECT binding assay.

In another test the target is CaMK4 (Homo sapiens, UniProt Q16566). Kind of test: KiNativ, OCI cells live cell. Particulars: 2 h, labeling site Lys2, peptide […]. Format: cell-based.
The target in a further test is PKN1 (Homo sapiens, UniProt Q16512). Kind of test: KiNativ, OCI cells live cell. Conditions: 2 h. Format: cell-based.
PKN1, sequence (Q16512 whole entry): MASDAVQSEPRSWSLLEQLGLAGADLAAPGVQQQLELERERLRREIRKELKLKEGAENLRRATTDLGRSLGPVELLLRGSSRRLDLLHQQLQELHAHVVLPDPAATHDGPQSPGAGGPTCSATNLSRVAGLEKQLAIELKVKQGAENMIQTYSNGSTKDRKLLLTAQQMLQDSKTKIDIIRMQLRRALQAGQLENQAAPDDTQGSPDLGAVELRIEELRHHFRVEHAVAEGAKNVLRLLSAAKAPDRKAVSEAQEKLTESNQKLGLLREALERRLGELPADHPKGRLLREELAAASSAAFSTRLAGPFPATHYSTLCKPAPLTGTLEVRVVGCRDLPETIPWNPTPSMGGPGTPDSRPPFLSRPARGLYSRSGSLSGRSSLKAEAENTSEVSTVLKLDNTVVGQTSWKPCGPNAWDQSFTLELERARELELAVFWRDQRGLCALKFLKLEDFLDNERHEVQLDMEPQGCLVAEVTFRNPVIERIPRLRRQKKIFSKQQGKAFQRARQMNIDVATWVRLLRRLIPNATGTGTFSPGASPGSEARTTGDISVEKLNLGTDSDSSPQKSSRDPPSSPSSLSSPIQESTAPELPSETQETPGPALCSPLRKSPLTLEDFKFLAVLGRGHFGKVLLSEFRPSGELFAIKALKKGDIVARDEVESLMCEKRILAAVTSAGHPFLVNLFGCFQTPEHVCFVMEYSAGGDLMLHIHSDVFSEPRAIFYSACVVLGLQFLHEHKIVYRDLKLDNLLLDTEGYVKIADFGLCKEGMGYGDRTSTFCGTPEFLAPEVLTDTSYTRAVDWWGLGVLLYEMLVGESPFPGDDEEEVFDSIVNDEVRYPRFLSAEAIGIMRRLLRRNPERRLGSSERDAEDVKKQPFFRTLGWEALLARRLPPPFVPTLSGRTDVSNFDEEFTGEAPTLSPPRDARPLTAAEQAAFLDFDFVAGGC
For a further test, the target named is BTK (Homo sapiens, UniProt Q06187). Briefly: KdELECT binding assay. Also noted: purchased Eurofins DiscoverX.
Another test concerns the target T2, JAK3 (Homo sapiens, UniProt P52333).
T2 construct: purchased Eurofins DiscoverX
Kind of test: KdELECT binding assay.

The target in a further test is LOK (Homo sapiens, UniProt O94804). Briefly: KiNativ, OCI cells live cell. The format is cell-based. Particulars: labeling site Lys2, peptide DLKAGNVLMTLEGDIR
LOK, sequence (O94804 whole entry): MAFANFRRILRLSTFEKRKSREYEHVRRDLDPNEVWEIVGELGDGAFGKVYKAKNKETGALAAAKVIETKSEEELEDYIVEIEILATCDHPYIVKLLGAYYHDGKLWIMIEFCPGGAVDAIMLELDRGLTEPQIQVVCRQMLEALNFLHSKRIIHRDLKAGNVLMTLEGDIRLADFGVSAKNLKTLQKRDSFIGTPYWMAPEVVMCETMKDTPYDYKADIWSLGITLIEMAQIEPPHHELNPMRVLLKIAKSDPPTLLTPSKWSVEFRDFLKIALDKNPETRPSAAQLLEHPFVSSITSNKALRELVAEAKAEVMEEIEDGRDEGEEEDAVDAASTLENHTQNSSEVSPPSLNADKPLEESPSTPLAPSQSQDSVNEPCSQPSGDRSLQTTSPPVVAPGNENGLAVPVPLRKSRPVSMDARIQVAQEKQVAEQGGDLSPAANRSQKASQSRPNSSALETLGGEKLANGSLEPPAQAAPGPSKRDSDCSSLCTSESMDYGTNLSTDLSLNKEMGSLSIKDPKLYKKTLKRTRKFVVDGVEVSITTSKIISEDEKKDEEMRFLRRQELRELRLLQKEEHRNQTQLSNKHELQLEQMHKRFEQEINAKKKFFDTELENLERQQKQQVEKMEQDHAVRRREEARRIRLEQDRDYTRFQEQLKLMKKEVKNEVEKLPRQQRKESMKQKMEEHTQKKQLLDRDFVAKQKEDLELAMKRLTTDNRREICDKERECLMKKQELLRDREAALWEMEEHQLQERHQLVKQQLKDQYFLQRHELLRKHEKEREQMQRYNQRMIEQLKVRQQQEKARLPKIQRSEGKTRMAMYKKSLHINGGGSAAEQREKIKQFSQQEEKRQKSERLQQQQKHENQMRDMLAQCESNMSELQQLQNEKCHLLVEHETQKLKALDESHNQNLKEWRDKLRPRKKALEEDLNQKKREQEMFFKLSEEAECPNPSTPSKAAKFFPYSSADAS
For a further test, the target named is CHK2 (Homo sapiens, UniProt O96017). Kind of test: KiNativ, OCI cells live cell. Format: cell-based. Conditions: 2 h.
CHK2, sequence (O96017 whole entry): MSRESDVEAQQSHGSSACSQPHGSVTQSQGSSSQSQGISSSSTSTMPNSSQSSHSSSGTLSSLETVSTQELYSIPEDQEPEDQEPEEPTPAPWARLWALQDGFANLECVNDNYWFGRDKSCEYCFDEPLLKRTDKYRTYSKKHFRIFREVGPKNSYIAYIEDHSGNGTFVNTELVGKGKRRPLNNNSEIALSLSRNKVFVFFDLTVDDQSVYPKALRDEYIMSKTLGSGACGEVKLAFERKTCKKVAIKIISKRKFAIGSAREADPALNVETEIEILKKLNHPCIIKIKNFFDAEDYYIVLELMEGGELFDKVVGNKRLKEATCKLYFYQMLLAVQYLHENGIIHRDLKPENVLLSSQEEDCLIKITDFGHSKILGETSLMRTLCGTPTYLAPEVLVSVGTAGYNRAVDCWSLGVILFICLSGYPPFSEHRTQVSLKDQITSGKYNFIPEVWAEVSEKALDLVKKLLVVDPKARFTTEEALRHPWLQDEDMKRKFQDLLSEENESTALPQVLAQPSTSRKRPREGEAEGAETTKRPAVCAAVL
The target in the next test is CSK (Homo sapiens, UniProt P41240). Briefly: KiNativ, OCI cells live cell. Format: cell-based.
CSK, sequence (P41240 whole entry): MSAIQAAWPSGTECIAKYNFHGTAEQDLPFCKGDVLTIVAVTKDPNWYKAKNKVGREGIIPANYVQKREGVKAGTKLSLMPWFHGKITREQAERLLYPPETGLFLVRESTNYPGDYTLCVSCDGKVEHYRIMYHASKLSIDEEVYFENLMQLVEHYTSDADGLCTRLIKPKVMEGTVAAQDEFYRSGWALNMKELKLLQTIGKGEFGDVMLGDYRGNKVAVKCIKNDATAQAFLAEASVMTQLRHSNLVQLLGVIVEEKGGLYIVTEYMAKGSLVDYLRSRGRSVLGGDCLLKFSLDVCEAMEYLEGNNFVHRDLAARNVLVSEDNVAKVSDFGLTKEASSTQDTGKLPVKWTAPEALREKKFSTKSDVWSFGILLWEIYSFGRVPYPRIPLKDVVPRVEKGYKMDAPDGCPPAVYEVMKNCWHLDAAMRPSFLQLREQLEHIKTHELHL
For another test, the target named is CaMK2g (Homo sapiens, UniProt Q13555). Briefly: KiNativ, OCI cells live cell. The format is cell-based. Conditions: 2 h, labeling site Lys1, peptide […].
Test [1] concerns pAURKA, pAURKB, pAKT, and MCL1 in OCI-AML3 cells. Kind of test: Western blot, signaling inhibition. Conditions: 100 nM, 4 hours. The format is cell-based, human. As for the experimental part:
(§1) MOM13 cells were serum starved (RPMI plus 0.5% FBS) for 18–24 hours prior to start of drug treatment. For other cells, they were not serum starved. Drug treatments were carried out for 1 or 4 hours, at which time cells were lysed with Cell Lysis buffer (CST) or RIPA buffer (CST) supplemented with protease and phosphatase inhibitors. […] Western blots were developed with either Signal Fire ECL reagent (CST) or SuperSignal West Femto Maximum Sensitivity Substrate (Invitrogen) using Film or Odyssey FC Imaging System (LI-COR Biosciences). Western blots were repeated in 2–3 biological replicate experiments.

Test [2] relates to phospho-FLT3 and phospho-STAT5 in MOLM13 and MV4-11 cells. Kind of test: Western blot, signaling inhibition. Format: cell-based, human. Conditions: 4 hours. As for the experimental part: as §1
(In general: A western blot detects proteins with antibodies after separation by electrophoresis.)

A further test deals with T3, ALK (Homo sapiens, UniProt Q9UM73).
T3 construct: purchased Eurofins DiscoverX
Kind of test: KdELECT binding assay.

A further test concerns the target CCRK (Homo sapiens, UniProt Q8IZL9). Kind of test: KiNativ, OCI cells live cell. Format: cell-based. Conditions: 2 h, labeling site Lys2, peptide […].
The next test addresses T4, AurA (Homo sapiens, UniProt O14965).
T4 sequence (O14965 1-403): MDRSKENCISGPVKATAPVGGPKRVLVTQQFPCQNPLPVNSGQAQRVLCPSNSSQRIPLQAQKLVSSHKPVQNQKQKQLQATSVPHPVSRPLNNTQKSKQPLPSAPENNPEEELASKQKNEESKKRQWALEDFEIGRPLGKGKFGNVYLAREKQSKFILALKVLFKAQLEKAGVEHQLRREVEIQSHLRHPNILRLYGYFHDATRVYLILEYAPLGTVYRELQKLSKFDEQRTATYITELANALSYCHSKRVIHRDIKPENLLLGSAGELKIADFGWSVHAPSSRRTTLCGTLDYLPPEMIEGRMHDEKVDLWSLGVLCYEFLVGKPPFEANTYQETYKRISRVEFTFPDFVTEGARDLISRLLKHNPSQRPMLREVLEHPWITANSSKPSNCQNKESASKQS
Kind of test: KiNativ, OCI cells live cell. The format is cell-based. Particulars: 2 h.

The target of the next test is MAPKAPK3 (Homo sapiens, UniProt Q16644). Kind of test: KiNativ, OCI cells live cell. The format is cell-based. Conditions: 2 h, labeling site ATP Loop, peptide […].
In test [3] the test system is Ba/F3-FLT3-ITD/F691L-GFP+ cells. Kind of test: Ba/F3 FLT3-ITD/F691L-GFP+ xenograft model. The format is in vivo, NSG mice. Conditions: 60 mg/kg once daily, after 13 days of treatment. As for the experimental part: Engraftment and growth of leukemic cells were monitored by noninvasive bioluminescence imaging in cell line xenograft models, as previously done ([47]). Details on the cell engraftment and dosing in mouse models are provided in the Supplemental Methods.
Luc+ or MOLM13-Res -Luc+ cells, 0.5 million OCI-AML3 -Luc+ cells, and 10,000 Ba/F3-FLT3-ITD/F691L-GFP+ cells. Weekly tumor engraftment of cell line xenograft models were assessed after injection of D-luciferin (150mg/kg i.p.; Gold Biotechnology, Inc, St. Louis, MO) on Xenogen IVIS-200 imaging system (Perkin Elmer, Waltham, MA) or GFP monitoring by peripheral blood via BD LSR II flow cytometer (BD Biosciences, San Jose, CA). Signal intensity was analyzed using Living Image Software (PerkinElmer) or FlowJo v10.0.08 software (FlowJo, LLC, Ashland, OR). Mice were randomized to treatment groups based on signal intensity and leukemia burden. Drug treatments were started on days 3, 7, or 13 after cell injection in OCI-AML3, MOLM13, and MOLM13-Res xenografts, respectively. In murine AML transplantation model, 1 million FLT3-ITD+/-/IDH2-R140Q+/- splenocytes (in house colony) were intravenously injected in male NSG mice. On day 7, mice were started on drug treatments. All mice were observed daily and humanely euthanized when showing signs of progressive disease including, hind limb paralysis, weight loss more than 20%, and lethargy. […]

The test system of a further test is MARK1, MARK2. Briefly: KiNativ, OCI cells live cell. Conditions: labeling site Lys1, peptide EVAVKIIDK
The format is cell-based, human.

The next test deals with T5, MSK2 domain1 (Homo sapiens, UniProt O75676).
T5 construct: MSK2 domain1
T5 sequence (O75676 whole entry, the tested form may be a part): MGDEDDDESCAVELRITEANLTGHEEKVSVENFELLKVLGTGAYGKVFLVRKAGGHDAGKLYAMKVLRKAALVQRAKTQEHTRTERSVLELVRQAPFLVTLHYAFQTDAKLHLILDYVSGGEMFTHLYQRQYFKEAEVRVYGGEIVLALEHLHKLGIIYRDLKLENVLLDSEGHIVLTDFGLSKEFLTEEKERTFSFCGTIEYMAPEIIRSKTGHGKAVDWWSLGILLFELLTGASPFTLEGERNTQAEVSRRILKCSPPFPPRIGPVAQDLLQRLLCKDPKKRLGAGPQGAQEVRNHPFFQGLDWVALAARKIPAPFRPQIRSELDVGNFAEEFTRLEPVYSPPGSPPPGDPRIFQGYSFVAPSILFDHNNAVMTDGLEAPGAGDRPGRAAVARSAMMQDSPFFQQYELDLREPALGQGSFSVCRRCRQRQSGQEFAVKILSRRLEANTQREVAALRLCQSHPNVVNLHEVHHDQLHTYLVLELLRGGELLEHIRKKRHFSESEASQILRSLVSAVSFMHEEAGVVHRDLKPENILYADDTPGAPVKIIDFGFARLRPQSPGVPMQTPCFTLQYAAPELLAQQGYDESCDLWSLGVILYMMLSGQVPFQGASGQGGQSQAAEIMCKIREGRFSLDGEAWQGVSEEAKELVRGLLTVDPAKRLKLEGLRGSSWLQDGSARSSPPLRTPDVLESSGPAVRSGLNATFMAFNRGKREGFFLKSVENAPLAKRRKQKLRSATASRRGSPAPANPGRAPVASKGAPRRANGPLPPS
Briefly: KiNativ, OCI cells live cell. The format is cell-based. Particulars: 2 h.

`CN1CCN(Cc2ccc(Nc3ncc(Cl)c(Nc4ccccc4S(=O)(=O)N(C)C)n3)cc2)CC1` [TP-0903]: the inhibition at 0.1 µM against NEK2 was 23.6%; against CaMK4, -2.6%; at PKN1 (labeling site Lys1, peptide VLLSEFRPSGELFAIKALK), 63.2%; on PKN1 (labeling site Lys2, peptide DLKLDNLLLDTEGYVK) it was 33.7%; at CHK2 (labeling site Lys1, peptide VAIKIISK) it was 37.7%; against CHK2 (labeling site Lys2, peptide DLKPENVLLSSQEEDCLIK) it was 37.1%. In addition, the inhibition at 0.1 µM was 31.6% against CaMK2g; 58.1% against CCRK; 89.9% on AurA (labeling site Lys1, peptide FILALKVLFK); 90.7% against AurA (labeling site Lys2, peptide DIKPENLLLGSAGELK); -28.5% at MAPKAPK3; 21.8% at MSK2 domain1 (labeling site Lys1, peptide LYAMKVLR). The inhibition at 0.1 µM on MSK2 domain1 (labeling site Lys2, peptide DLKLENVLLDSEGHIVLTDFGLSK) is 12.3%. For the same compound, the Kd on JAK2 was below 5 nM; at BTK it was 13 nM; on JAK3, below 5 nM; at ALK, below 5 nM. For the same compound, the Inhibition was determined as 86.9% on LOK; 11.9% at CSK (labeling site Activation Loop, peptide VSDFGLTKEASSTQDTGKLPVK); 0.379% on CSK (labeling site Lys1, peptide VAVKCIK); 26.6% in the test with MARK1, MARK2. Also, the “pAURKA, pAURKB, pAKT, and MCL1 by immunoblot” value in [1] was “inhibited”. Further, in test [2], the “phospho-FLT3 and phospho-STAT5 by immunoblot” value is “inhibited”. Besides, in test [3], the “Peripheral blood GFP signal compared with gilteritinib” value is “significantly lower”.
